The results in this text go back to patent US8088892B2, “Inhibitors of proteins from the Rho-GEF family” (Centre National de la Recherche Scientifique (C.N.R.S.), priority 2002, dated 2012).

Entries after “also recorded” stand apart in the source; their conditions may differ.

The test system of test [1] is NGF-differentiated PC12 cells. Kind of test: LPA-induced neurite retraction. Type of test: cell-based. As to the method:
FIG. 6B represents histograms quantifying the effects of GFP-TRIPα or GFP on LPA (lysophosphatidic acid) induced neurite retraction in NGF-differentiated PC12 cells. The X-axis represents the time after LPA addition in minutes and the Y-axis represents the percentage of transfected cells with neurites.
Cells were transfected with GFP-TRIPα (white bars) or GFP (black bars) and differentiated with NGF (50 ng/ml). 10 μM LPA was added and neurite retraction was followed for 15 minutes. The number of transfected cells with neurites was counted from at least 200 cells in 3 independent experiments.
Among the serum components known to trigger neurite retraction and cell rounding in neuronal cells is lysophosphatidic acid (LPA) (Moolenaar et al., 1997). Thus, a similar neurite retraction assay was performed, except that, instead of the serum-containing medium, LPA (10 μM, Sigma) was added to TRIPα transfected and differentiated PC12 cells (FIG. 6B).

Test [2] relates to ectopically expressed TrioGEFD2 in PC12 cells. Kind of test: NGF-induced neurite outgrowth in PC12 cells expressing TrioGEFD2. It is filed as cell-based. The note with it: PC12 co-transfected with TrioGEFD2, NGF 50 ng/ml 16 hours. As to the method:
FIG. 5C represents the inhibition by TRIPα of the TrioGEFD2 effect in neuronal morphology. Immunofluorescence images of PC12 cells co-transfected with HA-TrioGEFD2 and either GFP-TRIPα (panels d, e, f) or GFP alone panels a, b, c) are shown. After 48 hours of expression, cells were treated for 16 hours with NGF (nerve growth factor) (50 ng/ml) and fixed. Expression of GFP and GFP-TRIPα was directly visualised (a, d) whereas overexpressed TrioGEFD2 was detected using the 12CA5 anti-HA antibody followed by AMCA-conjugated anti-mouse IgG (b, e). Filamentous actin was stained with Rhodamine-conjugated Phalloidin (c, f). Scale bar: 20 μm.
Cells were transfected with HA-tagged TrioGEFD2 (left side of the figure), myc-tagged KalGEFD2 (middle of the figure) or RhoAV14 (a constitutively active mutant of RhoA) (right side of the figure), and with either GFP-TRIPα (white bars), GFP-TRIPβ (hatched bars) or GFP alone (black bars). Cells were processed as described in FIG. 5C and the number of co-transfected cells with neurites was counted.
Numerous reports have established Rho-GTPases as key regulators of neuronal morphology (Luo, 2000). In neuronal cell lines, activation of RhoG, Rac and Cdc42 induces neurite outgrowth, while RhoA stimulation antagonises this effect by promoting neurite retraction (Katoh et al., 2000; Kozma et al., 1997; Yamaguchi et al., 2001). The PC12 cell line is a useful cellular model for studying Nerve Growth Factor (NGF)-induced neuronal differentiation. PC12-E2 cells were plated on collagen-coated 12 mm coverslips as described previously (Estrach et al., 2002) and transfected with the Lipofectamine Plus reagent (Life Technologies) according to the manufacturer's instructions. After transfection and differentiation with NGF (Promega, 50 ng/ml in DMEM medium supplemented with 0.5% horse serum (HS)) for 16 hours, PC12 cells were fixed and permeabilised as described (Estrach et al., 2002). […] Images were recorded using a Hamamatsu CCD camera. All transfections were repeated at least three times, and an average of 200 cells was counted each time. […]

The next test addresses TrioGEFD2 (Homo sapiens, UniProt O75962). Kind of test: Co-immunoprecipitation of HA-TrioGEFD2 with GFP-TRIPα in COS cells. It is filed as binding. Set-up: using recombinant GST-TrioGEFD2 (a.a. 1848-2298), TrioDH2 (a.a. 1848-2096); made in house. The following applies: anti-GFP IP, anti-HA western blot. From the text:
HA-TrioGEFD2 was co-expressed with either GFP-TRIPα (right column) or GFP alone (left column). The upper panel represents the immunoprecipitation (IP) with the anti-GFP antibody (α-GEP), followed by a western-blot (WB) using the anti-HA antibody (α-HA) and the two lower panels represent the expression of the proteins in the cell lysates.
The Inventors next wanted to determine the effect of TRIPα on GEFD2-mediated RhoA activation in intact cells. First, it was checked whether TRIPα could bind to TrioGEFD2 in mammalian cells. For that purpose, vectors expressing the variable region of TRIAPα (TRIPα) fused to GFP in the pEGFP-C3 plasmid (Clontech) were designed. GFP or GFP-TRIPα were co-expressed with pMTHA-TroGEFD2 by transfection of COS cells using Lipofectamine Plus (Life Technologies) according to the manufacturer's protocol. Immunoprecipitation of GFP-tagged constructs from COS cell lysates were done with the polyclonal rabbit anti-GFP antibody (Torrey Pines Biolabs, Inc.).

Take “AREGADGAICGYNLATLVMLGPSERVFCPLCEPCSSDIYELM [TRIPα, 42-amino acid peptide corresponding to the variable region of TRIAPα]”: the “Effect on LPA-induced neurite retraction” value in test [1] (10 μM LPA, 15 min) was “prevents serum- and LPA-induced neurite retraction; also recorded: also inhibited LPA-mediated neurite collapse”. Besides, the “percentage of transfected cells with neurites after LPA addition” value in test [1] (15 min after 10 μM LPA) was “more than 37%”. Moreover, in test [2], the “Reversion of TrioGEFD2 inhibition of NGF-induced neurite outgrowth” value is “only the TrioGEFD2 effect is reversed”. For the same sequence, in the test with TrioGEFD2, the “Interaction with TrioGEFD2 in mammalian cells” value was “interacts with TrioGEFD2 in mammalian cells”.
